Laboratory results published in patent US8153593B2, “Transglutaminase inhibitors and methods of use thereof” (The Board of Trustees of the Leland Stanford Junior …, priority 2003, dated 2012).

These compounds were tested against T1, tumor associated TG2 (Mus musculus, UniProt P21981) (assay: Intracranial DBT tumor associated TG2 activity after dosing). Conditions: 15 min after last of four daily doses.
T1 construct: from tissue; host or cells: intracranial DBT glioblastoma tumours from dosed mice
T1 sequence (P21981 1-686): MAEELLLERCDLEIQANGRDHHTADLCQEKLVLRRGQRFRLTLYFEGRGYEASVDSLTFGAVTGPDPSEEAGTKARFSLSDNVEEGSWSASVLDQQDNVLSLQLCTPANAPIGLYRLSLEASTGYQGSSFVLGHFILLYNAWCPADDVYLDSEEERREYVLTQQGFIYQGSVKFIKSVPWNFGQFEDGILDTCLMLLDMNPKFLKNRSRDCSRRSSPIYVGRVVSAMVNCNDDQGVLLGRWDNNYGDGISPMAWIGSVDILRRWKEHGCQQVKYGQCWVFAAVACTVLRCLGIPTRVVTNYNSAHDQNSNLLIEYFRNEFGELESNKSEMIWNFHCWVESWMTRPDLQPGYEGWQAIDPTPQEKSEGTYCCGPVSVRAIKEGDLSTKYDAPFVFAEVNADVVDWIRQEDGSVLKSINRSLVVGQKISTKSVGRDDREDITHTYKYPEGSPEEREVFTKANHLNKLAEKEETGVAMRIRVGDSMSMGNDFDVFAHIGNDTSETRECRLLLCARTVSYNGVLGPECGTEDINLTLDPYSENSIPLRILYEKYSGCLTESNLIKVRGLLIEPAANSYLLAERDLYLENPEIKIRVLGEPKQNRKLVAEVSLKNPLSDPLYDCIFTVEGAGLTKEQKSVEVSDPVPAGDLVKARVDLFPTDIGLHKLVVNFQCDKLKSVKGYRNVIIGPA
Assay type: in vivo, mice
Description: To test whether therapeutic doses of KCC009 can modulate TG2 activity associated with intracranial glioblastomas, DBT tumors were injected intracranially in mice. As judged by MRI, the mice consistently established intracranial tumors after 7-10 days following injections, which, if untreated, caused death by 2-3 weeks. In an initial dose-finding experiment, cohorts of mice were administered 4 daily doses of vehicle or KCC009 (12.5 mg/kg, 25 mg/kg and 50 mg/kg) starting on day 11 after intra-cranial injections. Twenty-four hours later, the mice were sacrificed and tumors analyzed. […] Based on these findings a dose of 35 mg/kg was used for subsequent experiments in mice harboring intracranial DBT tumors.
As summarized in Table 4, KCC009 treatment led to significant suppression of TG2 activity after 15 min, whereas enzyme activity recovers fully by 24 h. Both uninhibited and inhibited activity levels are consistent with similar measurements in the small intestinal mucosa (data not shown).

| SMILES | TG2 activity-BCNU alone |
| --- | --- |
| O=NN(CCCl)C(=O)NCCCl [BCNU, reference compound] | 2.1 ± 0.2 (n = 4) nmol/h/mg protein |

Same assay, conditions: 24 h after last of four daily doses

| SMILES | TG2 activity-BCNU alone |
| --- | --- |
| O=NN(CCCl)C(=O)NCCCl [BCNU, reference compound] | 2.2 ± 0.3 (n = 2) nmol/h/mg protein |

These compounds were tested against T2, recombinant human tissue transglutaminase (Homo sapiens, UniProt P21980) (assay: tTGase inhibition assay, residual activity by glutamate dehydrogenase coupled assay). Conditions: Table 3.
T2 construct: made in house
T2 sequence (P21980 1-687): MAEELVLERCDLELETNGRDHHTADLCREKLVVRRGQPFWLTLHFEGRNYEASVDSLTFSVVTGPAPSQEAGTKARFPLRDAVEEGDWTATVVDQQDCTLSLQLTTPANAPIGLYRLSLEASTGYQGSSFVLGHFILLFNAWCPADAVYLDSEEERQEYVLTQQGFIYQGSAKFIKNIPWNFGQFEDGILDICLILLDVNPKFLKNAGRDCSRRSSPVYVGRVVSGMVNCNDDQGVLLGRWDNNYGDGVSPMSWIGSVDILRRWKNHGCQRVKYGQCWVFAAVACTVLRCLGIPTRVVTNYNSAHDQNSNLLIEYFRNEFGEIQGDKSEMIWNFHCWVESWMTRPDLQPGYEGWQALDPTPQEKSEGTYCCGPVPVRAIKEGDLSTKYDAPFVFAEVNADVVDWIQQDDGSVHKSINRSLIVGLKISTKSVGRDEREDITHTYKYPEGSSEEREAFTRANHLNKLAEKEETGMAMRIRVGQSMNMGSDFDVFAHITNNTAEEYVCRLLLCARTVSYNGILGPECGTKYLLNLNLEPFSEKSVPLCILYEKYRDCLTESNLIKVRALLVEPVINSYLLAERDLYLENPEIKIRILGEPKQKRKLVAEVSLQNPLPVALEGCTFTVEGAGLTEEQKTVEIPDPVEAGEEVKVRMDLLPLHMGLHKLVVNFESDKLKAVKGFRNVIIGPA
Assay type: biochemical

| Ki | kinh | kinh/KI | SMILES |
| --- | --- | --- | --- |
| 173 µM | 0.283 min⁻¹ | 1600 /Mmin | COc1ccc2[nH]cc(CC(NC(=O)OCc3cnc4ccccc4c3)C(=O)NCC3CC(Br)=NO3)c2c1 (centres unmarked) [ERW1041D, [1-[(3-Bromo-4,5-dihydro-isoxazol-5-ylmethyl)-carbamoyl]-2-(5-methoxy-1H-indol-3-yl)-ethyl]-carbamic acid quinolin-3-ylmethyl ester] |
| 4.9 µM | 0.1314 min⁻¹ | 26800 /Mmin | O=C(NC(Cc1c[nH]c2ccc(F)cc12)C(=O)NCC1CC(Br)=NO1)OCc1cnc2ccccc2c1 (centres unmarked) [ERW1069, [1-[(3-Bromo-4,5-dihydro-isoxazol-5-ylmethyl)-carbamoyl]-2-(5-fluoro-1H-indol-3-yl)-ethyl]-carbamic acid quinolin-3-ylmethyl ester] |
| – | – | <1200 /Mmin | O=C(NCC1CC(Br)=NO1)C1Cc2ccccc2N1C(=O)OCc1ccccc1 (centres unmarked) [ERW1045, 2-[(3-Bromo-4,5-dihydro-isoxazol-5-ylmethyl)-carbamoyl]-2,3-dihydro-indole-1-carboxylic acid benzyl ester] |
| 63.1 µM | 0.184 min⁻¹ | 2900 /Mmin | O=C(NC(Cc1ccc(O)cc1)C(=O)NCC1CC(Br)=NO1)OCc1cnc2ccccc2c1 (centres unmarked) [ERW1041A, [1-[(3-Bromo-4,5-dihydro-isoxazol-5-ylmethyl)-carbamoyl]-2-(4-hydroxy-phenyl)-ethyl]-carbamic acid quinolin-3-ylmethyl ester] |

Continued, compound first:

| SMILES | Ki | kinh | kinh/KI |
| --- | --- | --- | --- |
| O=C(NCC1CC(Br)=NO1)[C@@H]1CCCN1C(=O)OCc1cnc2ccccc2c1 (stereo in doubt) [ERW1041E, 2-[(3-Bromo-4,5-dihydro-isoxazol-5-ylmethyl)-carbamoyl]-pyrrolidine-1-carboxylic acid quinolin-3-ylmethyl ester] | 953 µM | 2.856 min⁻¹ | 3000 /Mmin |
| O=C(NC(Cc1c[nH]c2ccc(F)cc12)C(=O)NCC1CC(Br)=NO1)OCc1ccccc1 (centres unmarked) [ERW903, [1-[(3-Bromo-4,5-dihydro-isoxazol-5-ylmethyl)-carbamoyl]-2-(5-fluoro-1H-indol-3-yl)-ethyl]-carbamic acid benzyl ester] | – | – | <1200 >1200 <1200 <1200 /Mmin |
| O=C(NC(Cc1c[nH]c2ccc(O)cc12)C(=O)NCC1CC(Br)=NO1)OCc1cnc2ccccc2c1 (centres unmarked) [ERW1041B, [1-[(3-Bromo-4,5-dihydro-isoxazol-5-ylmethyl)-carbamoyl]-2-(5-hydroxy-1H-indol-3-yl)-ethyl]-carbamic acid quinolin-3-ylmethyl ester] | 1380 µM | 2.57 min⁻¹ | 1850 /Mmin |

Same assay, conditions: dihydroisoxazoles, Table 1

| kinh | kinh/Ki | Ki | SMILES |
| --- | --- | --- | --- |
| 0.89 min⁻¹ | 810 min^−1M^−1 | – | O=C(NCC1CC(Br)=NO1)Nc1ccccc1 (centres unmarked) [Compound 60, 1-(3-Bromo-4,5-dihydro-isoxazol-5-ylmethyl)-3-phenyl-urea] |
| 0.95 min⁻¹ | 1000 min^−1M^−1 | – | O=C(NCC1CC(Br)=NO1)Nc1cc(C(F)(F)F)ccc1Cl (centres unmarked) [Compound 61, 1-(3-Bromo-4,5-dihydro-isoxazol-5-ylmethyl)-3-(2-chloro-5-trifluoromethyl-phenyl)-urea] |
| 0.19 min⁻¹ | 730 min^−1M^−1 | 260 µM | CN(CC1CC(Br)=NO1)C(=O)[C@H](Cc1ccccc1)NC(=O)OCc1ccccc1 (stereo partly drawn) [Compound 58, {(S)-1-[(3-Bromo-4,5-dihydro-isoxazol-5-ylmethyl)-methyl-carbamoyl]-2-phenyl-ethyl}-carbamic acid benzyl ester] |
| 0.60 min⁻¹ | 220 min^−1M^−1 | 2700 µM | CC(=O)N[C@@H](Cc1ccccc1)C(=O)NCC1CC(Br)=NO1 (stereo partly drawn) [Compound 54, (S)-2-Acetylamino-N-(3-bromo-4,5-dihydro-isoxazol-5-ylmethyl)-3-phenyl-propionamide] |
| 0.41 min⁻¹ | 450 min^−1M^−1 | 910 µM | C[C@H](NC(=O)OCc1ccccc1)C(=O)NCC1CC(Br)=NO1 (stereo partly drawn) [Compound 53, {(S)-1-[(3-Bromo-4,5-dihydro-isoxazol-5-ylmethyl)-carbamoyl]-ethyl}-carbamic acid benzyl ester] |

The remaining lines, values behind:

| SMILES | kinh | kinh/Ki | Ki |
| --- | --- | --- | --- |
| O=C(N[C@H](Cc1ccccc1)C(=O)NCC1CC(Br)=NO1)OCc1ccccc1 (stereo partly drawn) [Compound 55, {(R)-1-[(3-Bromo-4,5-dihydro-isoxazol-5-ylmethyl)-carbamoyl]-2-phenyl-ethyl}-carbamic acid benzyl ester] | 0.29 min⁻¹ | – | – |
| Cc1ccc(C)c(NC(=O)NCC2CC(Br)=NO2)c1 (centres unmarked) [Compound 64, 1-(3-Bromo-4,5-dihydro-isoxazol-5-ylmethyl)-3-(2,5-dimethyl-phenyl)-urea] | 0.97 min⁻¹ | 1000 min^−1M^−1 | – |
| O=C(NCC1CC(Br)=NO1)Nc1ccc(F)cc1 (centres unmarked) [Compound 63, 1-(3-Bromo-4,5-dihydro-isoxazol-5-ylmethyl)-3-(4-fluoro-phenyl)-urea] | 1.0 min⁻¹ | 770 min^−1M^−1 | – |
| COC(=O)[C@H](CC(=O)NCC1CC(Br)=NO1)NC(=O)OCc1ccccc1 (stereo partly drawn) [Compound 51, (S)-2-Benzyloxycarbonylamino-N-(3-bromo-4,5-dihydro-isoxazol-5-ylmethyl)-succinamic acid methyl ester] | 0.43 min⁻¹ | 490 min^−1M^−1 | 870 µM |
| O=C(N[C@@H](Cc1c[nH]c2ccccc12)C(=O)NCC1CC(Br)=NO1)OCc1ccccc1 (stereo partly drawn) [Compound 57, [(S)-1-[(3-Bromo-4,5-dihydro-isoxazol-5-ylmethyl)-carbamoyl]-2-(1H-indol-3-yl)-ethyl]-carbamic acid benzyl ester] | 0.78 min⁻¹ | 2500 min^−1M^−1 | – |
| O=C(N[C@@H](Cc1ccccc1)C(=O)OCC1CC(Br)=NO1)OCc1ccccc1 (stereo partly drawn) [Compound 52, (S)-2-Benzyloxycarbonylamino-3-phenyl-propionic acid 3-bromo-4,5-dihydro-isoxazol-5-ylmethyl ester] | 0.32 min⁻¹ | 230 min^−1M^−1 | 1300 µM |
| O=C(NCC1CC(Br)=NO1)Nc1ccc(Cl)cc1C(F)(F)F (centres unmarked) [Compound 62, 1-(3-Bromo-4,5-dihydro-isoxazol-5-ylmethyl)-3-(4-chloro-2-trifluoromethyl-phenyl)-urea] | 1.1 min⁻¹ | 850 min^−1M^−1 | – |
| O=C(C[C@H](NC(=O)OCc1ccccc1)C(=O)NCC1CC(Br)=NO1)NCc1ccccc1 (stereo partly drawn) [Compound 56, {(S)-2-Benzylcarbamoyl-1-[(3-bromo-4,5-dihydro-isoxazol-5-ylmethyl)-carbamoyl]-ethyl}-carbamic acid benzyl ester] | 0.54 min⁻¹ | 2300 min^−1M^−1 | 240 µM |
| COC(=O)[C@H](CCC(=O)NCC1CC(Br)=NO1)NC(=O)OCc1ccccc1 (stereo partly drawn) [Compound 50, (S)-2-Benzyloxycarbonylamino-4-[(3-bromo-4,5-dihydro-isoxazol-5-ylmethyl)-carbamoyl]-butyric acid methyl ester] | 0.32 min⁻¹ | 200 min^−1M^−1 | 1600 µM |
